Test: Fatty acid composition of pig tissues (ham, loin, belly, skin) after feeding SDA ethyl ester diets, 35 day study
Type: in vivo, pigs
Method: A 35 day study was conducted to determine whether pigs fed a diet containing SDA could enhance tissues with improved fatty acid profiles including increased levels of SDA, EPA, and DHA.
Four test diets (Treatment 2, 3, 4, and 5) with SDA ethyl ester substituted for corn oil to provide 0.2, 0.4, 0.6 and 0.8% (w/w SDA active ingredient, as-is basis) were fed ad libitum to one pen of four pigs throughout the 35-day test period Table 4). All diets were fed in meal form. Treatment 6 was fed the same diet as Treatment 5, but for a duration of only 21 days.
All pigs were individually weighed at initiation of the acclimation and test period, and immediately prior to slaughter. Feed consumption per pen was recorded. Upon completion of the feeding period, pigs were slaughtered for tissue collection and carcass evaluation. Pigs were slaughtered using standard industry practices (electrical stunning, exsanguinations, scalding, dehairing and evisceration). Live weights prior to slaughter and hot carcass weights were recorded. The left side of each carcass was fabricated and samples were obtained from the loin (longissimus muscle), ham (semimembranosus muscle) and belly (a section from the center of the belly) for sensory evaluation, fatty acid, and proximate analysis. Prior to removing the sample for sensory and fatty and proximate analysis from the belly the firmness of the belly was evaluated using a flop test. At 24 hr postmortem fat thickness (10th rib), loin eye area (10th rib), visual color, firmness and marbling, Minolta color (L*a*b*), pH, and drip loss were measured.
In order to evaluate the fatty acid composition of pig tissues (loin, ham, skin, and belly), samples were stored at −80° C. until evaluation. After thawing, ˜22 g of fresh pig tissue was chopped into small pieces and thoroughly mixed before 10 g was sub sampled and lyophilized. Lyophilized samples were ground in 30 ml Sarstedt tubes with two ball bearings using a Mega Grinder. Ground samples (loin and ham: 50 mg; skin: 100 mg; belly: 150 mg; diet: 500 mg) were directly methylated with sulfuric acid in methanol (loin and ham: 1 mL; skin: 3 mL; belly: 10 mL; diet: 1.5 mL) sealed in the presence of butylated hydroxytoluene (50 mg BHT in 100 ml reagent) in reflux conditions of 90° C. Resultant fatty acid methyl esters (FAME's) were separated by capillary gas chromatography (GC) and detected by flame ionization detector (FID). The column used was a Supelco Omegawax 250 capillary column with dimensions of 30 m×0.25 mm×0.25 μm film thickness. The run time was 32 minutes. Peaks were identified based on their relative retention time compared to a FAME reference mixture. Quantification was achieved by using an internal standard (c15:0 triacylglyceride (TAG) for pig tissue samples and c17:0 TAG for diet samples). Results are reported as FA g/100 g fat with theoretical response correction.
For Table 6 below, each value represents g/100 g total fatty acids a mean of 4 samples (1 sample from each of 4 pigs) per treatment.

CC/C=C\C/C=C\C/C=C\C/C=C\CCCCC(=O)O [SDA, stearidonic acid]
18:4 n-3, ham (SDA 0.6%, 35 Day): 3.56c mg FA/100 g of fresh tissue
20:1 n-9, ham (SDA 0.6%, 35 Day): 13.3 mg FA/100 g of fresh tissue
20:2 n-6, ham (SDA 0.6%, 35 Day): 6.1b mg FA/100 g of fresh tissue
20:3 n-3, ham (SDA 0.6%, 35 Day): 0.87 mg FA/100 g of fresh tissue
20:4 n-3, ham (SDA 0.6%, 35 Day): 5.85c mg FA/100 g of fresh tissue
20:4 n-6, ham (SDA 0.6%, 35 Day): 55.3 mg FA/100 g of fresh tissue
20:5 n-3, ham (SDA 0.6%, 35 Day): 11.32bc mg FA/100 g of fresh tissue
22:1 n-11, ham (SDA 0.6%, 35 Day): 0.58a mg FA/100 g of fresh tissue
22:5 n-3, ham (SDA 0.6%, 35 Day): 14.4bc mg FA/100 g of fresh tissue
22:6 n-3, ham (SDA 0.6%, 35 Day): 2.14 mg FA/100 g of fresh tissue
Lipid content, ham (SDA 0.6%, 35 Day): 2.24%
Total PUFA, ham (SDA 0.6%, 35 Day): 337.7 mg FA/100 g of fresh tissue
Total monoenes, ham (SDA 0.6%, 35 Day): 1039 mg FA/100 g of fresh tissue
Total n-3, ham (SDA 0.6%, 35 Day): 43.1b mg FA/100 g of fresh tissue
Total n-6, ham (SDA 0.6%, 35 Day): 294.5 mg FA/100 g of fresh tissue
Total saturates, ham (SDA 0.6%, 35 Day): 765.2 mg FA/100 g of fresh tissue
n-3/n-6, ham (SDA 0.6%, 35 Day): 0.147
12:0, ham (SDA 0.8%, 21 Day): 2.2 mg FA/100 g of fresh tissue
14:0, ham (SDA 0.8%, 21 Day): 36.8 mg FA/100 g of fresh tissue
16:0, ham (SDA 0.8%, 21 Day): 701.1 mg FA/100 g of fresh tissue
16:1 n-7, ham (SDA 0.8%, 21 Day): 108.3 mg FA/100 g of fresh tissue
18:0, ham (SDA 0.8%, 21 Day): 358.1 mg FA/100 g of fresh tissue
18:1 n-7, ham (SDA 0.8%, 21 Day): 138.1 mg FA/100 g of fresh tissue
18:1 n-9, ham (SDA 0.8%, 21 Day): 1266.2 mg FA/100 g of fresh tissue
18:2 n-6, ham (SDA 0.8%, 21 Day): 290.7 mg FA/100 g of fresh tissue
18:3 n-3, ham (SDA 0.8%, 21 Day): 8.66 mg FA/100 g of fresh tissue
18:4 n-3, ham (SDA 0.8%, 21 Day): 3.67c mg FA/100 g of fresh tissue
20:1 n-9, ham (SDA 0.8%, 21 Day): 21.8 mg FA/100 g of fresh tissue
20:2 n-6, ham (SDA 0.8%, 21 Day): 11.3a mg FA/100 g of fresh tissue
20:3 n-3, ham (SDA 0.8%, 21 Day): 1.33 mg FA/100 g of fresh tissue
20:4 n-3, ham (SDA 0.8%, 21 Day): 7.23c mg FA/100 g of fresh tissue
20:4 n-6, ham (SDA 0.8%, 21 Day): 63.4 mg FA/100 g of fresh tissue
20:5 n-3, ham (SDA 0.8%, 21 Day): 9.68b mg FA/100 g of fresh tissue
22:1 n-11, ham (SDA 0.8%, 21 Day): 0.95ab mg FA/100 g of fresh tissue
22:5 n-3, ham (SDA 0.8%, 21 Day): 13.2bc mg FA/100 g of fresh tissue
22:6 n-3, ham (SDA 0.8%, 21 Day): 1.85 mg FA/100 g of fresh tissue
Lipid content, ham (SDA 0.8%, 21 Day): 3.23%
Total PUFA, ham (SDA 0.8%, 21 Day): 433.7 mg FA/100 g of fresh tissue
Total monoenes, ham (SDA 0.8%, 21 Day): 1546 mg FA/100 g of fresh tissue
Total n-3, ham (SDA 0.8%, 21 Day): 45.6b mg FA/100 g of fresh tissue
Total n-6, ham (SDA 0.8%, 21 Day): 388.1 mg FA/100 g of fresh tissue
Total saturates, ham (SDA 0.8%, 21 Day): 1104.4 mg FA/100 g of fresh tissue
n-3/n-6, ham (SDA 0.8%, 21 Day): 0.121c
12:0, ham (SDA 0.8%, 35 Day): 1.04 mg FA/100 g of fresh tissue
14:0, ham (SDA 0.8%, 35 Day): 18.3 mg FA/100 g of fresh tissue
16:0, ham (SDA 0.8%, 35 Day): 386.7 mg FA/100 g of fresh tissue
16:1 n-7, ham (SDA 0.8%, 35 Day): 52.8 mg FA/100 g of fresh tissue
18:0, ham (SDA 0.8%, 35 Day): 206.6 mg FA/100 g of fresh tissue
18:1 n-7, ham (SDA 0.8%, 35 Day): 81.5 mg FA/100 g of fresh tissue
18:1 n-9, ham (SDA 0.8%, 35 Day): 685.9 mg FA/100 g of fresh tissue
18:2 n-6, ham (SDA 0.8%, 35 Day): 208.6 mg FA/100 g of fresh tissue
18:3 n-3, ham (SDA 0.8%, 35 Day): 4.70 mg FA/100 g of fresh tissue
18:4 n-3, ham (SDA 0.8%, 35 Day): 4.09c mg FA/100 g of fresh tissue
20:1 n-9, ham (SDA 0.8%, 35 Day): 9.9 mg FA/100 g of fresh tissue
20:2 n-6, ham (SDA 0.8%, 35 Day): 5.1b mg FA/100 g of fresh tissue
20:3 n-3, ham (SDA 0.8%, 35 Day): 0.62 mg FA/100 g of fresh tissue
20:4 n-3, ham (SDA 0.8%, 35 Day): 5.36bc mg FA/100 g of fresh tissue
20:4 n-6, ham (SDA 0.8%, 35 Day): 54.2 mg FA/100 g of fresh tissue
20:5 n-3, ham (SDA 0.8%, 35 Day): 14.69c mg FA/100 g of fresh tissue
22:1 n-11, ham (SDA 0.8%, 35 Day): 0.57a mg FA/100 g of fresh tissue
22:5 n-3, ham (SDA 0.8%, 35 Day): 14.2bc mg FA/100 g of fresh tissue
22:6 n-3, ham (SDA 0.8%, 35 Day): 2.35 mg FA/100 g of fresh tissue
Lipid content, ham (SDA 0.8%, 35 Day): 1.88%
Total PUFA, ham (SDA 0.8%, 35 Day): 330.6 mg FA/100 g of fresh tissue
Total monoenes, ham (SDA 0.8%, 35 Day): 846 mg FA/100 g of fresh tissue
Total n-3, ham (SDA 0.8%, 35 Day): 46.0b mg FA/100 g of fresh tissue
Total n-6, ham (SDA 0.8%, 35 Day): 284.6 mg FA/100 g of fresh tissue
Total saturates, ham (SDA 0.8%, 35 Day): 616.6 mg FA/100 g of fresh tissue
n-3/n-6, ham (SDA 0.8%, 35 Day): 0.162
Omega 3 fatty acid enrichment in belly, loin, ham and skin tissues as compared to the control (SDA fed for the last 35 days prior to slaughter): significant increase
More DHA deposition with 35 days than with 21 days of SDA consumption (Treatment 5 (35 day) vs Treatment six (21 day), 0.8% SDA, ham): about 27%

Reference: patent publication US20090197955A1, “METHODS OF IMPROVING DHA DEPOSITION AND RELATED FUNCTION AND/OR DEVELOPMENT” (Monsanto Company, priority 2008, published 2009)
